{
  "source": "patent US20250382332A1",
  "about": "“NOVEL ALPHA-FACTOR BASED PEPTIDES WITH ANTIFUNGAL ACTIVITY” (INVAIO SCIENCES, INC., priority 2024, published 2025)",
  "tested_on": "Botrytis cinerea (B05.10)",
  "assay": "Resazurin antifungal assay of 180 alpha-factor peptide variants towards Botrytis (Example 2)",
  "assay_type": "cell-based",
  "conditions": "% inhibition of fungal growth, Botrytis conidia, resazurin; for Inhibition at 50 μM: peptide 50 μM; for Inhibition at 100 μM: peptide 100 μM",
  "in_short": "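B. cinerea B05.10 conidia (5000/well) were exposed to peptides at 100, 50, 20, 15 and 10 μM final for 24 h at 20° C. Resazurin was then added and fluorescence read at 570/620 nm. Percent growth inhibition was calculated against conidia-only wells, with four technical replicates.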",
  "note": "Peptide text beside a SMILES is read from it.",
  "data": [
    {"compound": "CSCC[C@H](NC(=O)[C@H](Cc1c[nH]cn1)NC(=O)[C@@H](N)Cc1c[nH]c2ccccc12)C(=O)NCC(=O)N[C@@H](CCC(N)=O)C(=O)N[C@@H](CC(C)C)C(=O)N[C@@H](CCCCN)C(=O)N1CCC[C@H]1C(=O)NCC(=O)N[C@@H](CCC(=O)O)C(=O)N1CCC[C@H]1C(=O)N[C@@H](CCSC)C(=O)N[C@@H](Cc1ccc(O)cc1)C(=O)O", "note": "[compound 137] (H-WHMGQLKPGEPMY-OH; N-terminus and C-terminus assumed)", "values": [
      {"measurement": "Inhibition at 50 μM", "result": "<90", "unit": "%"},
      {"measurement": "Inhibition at 100 μM", "result": "<90", "unit": "%"}
    ]},
    {"compound": "CSCC[C@H](NC(=O)[C@H](CCC(N)=O)NC(=O)[C@@H](N)Cc1c[nH]c2ccccc12)C(=O)N[C@@H](CC(C)C)C(=O)N[C@@H](CCCCN)C(=O)N[C@@H](CC(C)C)C(=O)N[C@@H](CCCCN)C(=O)N[C@@H](Cc1ccc(O)cc1)C(=O)NCC(=O)N[C@@H](CCC(N)=O)C(=O)N1CCC[C@H]1C(=O)N[C@@H](CCSC)C(=O)N[C@@H](Cc1ccc(O)cc1)C(=O)O", "note": "[compound 138] (H-WQMLKLKYGQPMY-OH; N-terminus and C-terminus assumed)", "values": [
      {"measurement": "Inhibition at 50 μM", "result": "<90", "unit": "%"},
      {"measurement": "Inhibition at 100 μM", "result": "<90", "unit": "%"}
    ]},
    {"compound": "CC[C@H](C)[C@H](NC(=O)[C@H](CCC(=O)O)NC(=O)CNC(=O)[C@H](Cc1c[nH]c2ccccc12)NC(=O)[C@H](Cc1c[nH]cn1)NC(=O)[C@@H]1CCCN1)C(=O)N[C@@H](CCCCN)C(=O)N1CCC[C@H]1C(=O)NCC(=O)N[C@@H](CCC(N)=O)C(=O)N[C@@H](CO)C(=O)N[C@@H](CCSC)C(=O)N[C@@H](Cc1ccc(O)cc1)C(=O)O", "note": "[compound 139] (H-PHWGEIKPGQSMY-OH; N-terminus and C-terminus assumed)", "values": [
      {"measurement": "Inhibition at 50 μM", "result": "<90", "unit": "%"},
      {"measurement": "Inhibition at 100 μM", "result": "<90", "unit": "%"}
    ]},
    {"compound": "CC[C@H](C)[C@H](NC(=O)[C@H](Cc1ccccc1)NC(=O)[C@H](CS)NC(=O)[C@@H](N)CCCCN)C(=O)N[C@@H](CCC(N)=O)C(=O)N[C@@H](CC(C)C)C(=O)N[C@@H](CCCCN)C(=O)N1CCC[C@H]1C(=O)NCC(=O)N[C@@H](CCC(N)=O)C(=O)N1CCC[C@H]1C(=O)N[C@@H](CCSC)C(=O)N[C@@H](Cc1ccc(O)cc1)C(=O)O", "note": "[compound 140] (H-KCFIQLKPGQPMY-OH; N-terminus and C-terminus assumed)", "values": [
      {"measurement": "Inhibition at 50 μM", "result": "<90", "unit": "%"},
      {"measurement": "Inhibition at 100 μM", "result": 90.65, "unit": "%"}
    ]},
    {"compound": "CSCC[C@H](NC(=O)[C@@H]1CCCN1C(=O)[C@H](CCC(N)=O)NC(=O)CNC(=O)[C@H](CCCNC(=N)N)NC(=O)[C@H](CCCCN)NC(=O)[C@H](CC(C)C)NC(=O)[C@@H](NC(=O)[C@H](CC(C)C)NC(=O)[C@H](CC(=O)O)NC(=O)[C@H](CCCNC(=N)N)NC(=O)[C@@H]1CCCN1)[C@@H](C)O)C(=O)N[C@@H](Cc1ccc(O)cc1)C(=O)O", "note": "[compound 141] (H-PRDLTLKRGQPMY-OH; N-terminus and C-terminus assumed)", "values": [
      {"measurement": "Inhibition at 50 μM", "result": "<90", "unit": "%"},
      {"measurement": "Inhibition at 100 μM", "result": "<90", "unit": "%"}
    ]},
    {"compound": "CC[C@H](C)[C@H](NC(=O)[C@H](CO)NC(=O)[C@H](CC(C)C)NC(=O)CNC(=O)[C@H](Cc1c[nH]cn1)NC(=O)[C@@H]1CCCN1)C(=O)N[C@@H](Cc1ccc(O)cc1)C(=O)N1CCC[C@H]1C(=O)NCC(=O)N[C@@H](CCC(N)=O)C(=O)N1CCC[C@H]1C(=O)N[C@@H](CCSC)C(=O)N[C@@H](Cc1ccc(O)cc1)C(=O)O", "note": "[compound 142] (H-PHGLSIYPGQPMY-OH; N-terminus and C-terminus assumed)", "values": [
      {"measurement": "Inhibition at 50 μM", "result": "<90", "unit": "%"},
      {"measurement": "Inhibition at 100 μM", "result": "<90", "unit": "%"}
    ]},
    {"compound": "CSCC[C@H](NC(=O)[C@@H]1CCCN1C(=O)[C@H](CCC(N)=O)NC(=O)CNC(=O)[C@@H]1CCCN1C(=O)[C@H](CCCCN)NC(=O)[C@H](CC(C)C)NC(=O)[C@H](CCC(=O)O)NC(=O)CNC(=O)[C@H](Cc1c[nH]c2ccccc12)NC(=O)[C@H](Cc1c[nH]cn1)NC(=O)[C@@H]1CCCN1)C(=O)N[C@@H](Cc1ccc(O)cc1)C(=O)O", "note": "[compound 143] (H-PHWGELKPGQPMY-OH; N-terminus and C-terminus assumed)", "values": [
      {"measurement": "Inhibition at 50 μM", "result": "<90", "unit": "%"},
      {"measurement": "Inhibition at 100 μM", "result": "<90", "unit": "%"}
    ]},
    {"compound": "CSCC[C@H](NC(=O)[C@@H]1CCCN1C(=O)[C@H](CCC(N)=O)NC(=O)CNC(=O)[C@@H]1CCCN1C(=O)[C@H](Cc1ccccc1)NC(=O)[C@H](CC(C)C)NC(=O)[C@H](CCC(N)=O)NC(=O)[C@@H](NC(=O)[C@H](Cc1c[nH]c2ccccc12)NC(=O)[C@H](Cc1c[nH]cn1)NC(=O)[C@@H](N)CCCCN)C(C)C)C(=O)N[C@@H](Cc1ccc(O)cc1)C(=O)O", "note": "[compound 144] (H-KHWVQLFPGQPMY-OH; N-terminus and C-terminus assumed)", "values": [
      {"measurement": "Inhibition at 50 μM", "result": "<90", "unit": "%"},
      {"measurement": "Inhibition at 100 μM", "result": 99.99, "unit": "%"}
    ]},
    {"compound": "CSCC[C@H](NC(=O)[C@@H]1CCCN1C(=O)[C@H](CCC(N)=O)NC(=O)CNC(=O)[C@H](CC(N)=O)NC(=O)[C@H](CCCCN)NC(=O)[C@H](Cc1ccccc1)NC(=O)[C@H](CC(N)=O)NC(=O)[C@H](CC(C)C)NC(=O)[C@H](Cc1c[nH]c2ccccc12)NC(=O)[C@H](CCC(=O)O)NC(=O)[C@@H](N)CCCCN)C(=O)N[C@@H](Cc1ccc(O)cc1)C(=O)O", "note": "[compound 145] (H-KEWLNFKNGQPMY-OH; N-terminus and C-terminus assumed)", "values": [
      {"measurement": "Inhibition at 50 μM", "result": "<90", "unit": "%"},
      {"measurement": "Inhibition at 100 μM", "result": "<90", "unit": "%"}
    ]},
    {"compound": "CSCC[C@H](NC(=O)[C@@H]1CCCN1C(=O)[C@H](CCC(N)=O)NC(=O)CNC(=O)[C@@H]1CCCN1C(=O)[C@H](Cc1c[nH]c2ccccc12)NC(=O)[C@H](Cc1ccccc1)NC(=O)[C@H](CCC(N)=O)NC(=O)CNC(=O)[C@@H](NC(=O)[C@H](CCCNC(=N)N)NC(=O)[C@@H](N)Cc1c[nH]c2ccccc12)[C@@H](C)O)C(=O)N[C@@H](Cc1ccc(O)cc1)C(=O)O", "note": "[compound 146] (H-WRTGQFWPGQPMY-OH; N-terminus and C-terminus assumed)", "values": [
      {"measurement": "Inhibition at 50 μM", "result": "<90", "unit": "%"},
      {"measurement": "Inhibition at 100 μM", "result": "<90", "unit": "%"}
    ]},
    {"compound": "CSCC[C@H](NC(=O)[C@@H]1CCCN1C(=O)[C@H](CCC(N)=O)NC(=O)CNC(=O)[C@H](CCCNC(=N)N)NC(=O)[C@H](CCCCN)NC(=O)[C@H](CC(C)C)NC(=O)[C@H](CCC(N)=O)NC(=O)CNC(=O)[C@H](CC(=O)O)NC(=O)[C@H](Cc1c[nH]cn1)NC(=O)[C@@H]1CCCN1)C(=O)N[C@@H](Cc1ccc(O)cc1)C(=O)O", "note": "[compound 147] (H-PHDGQLKRGQPMY-OH; N-terminus and C-terminus assumed)", "values": [
      {"measurement": "Inhibition at 50 μM", "result": "<90", "unit": "%"},
      {"measurement": "Inhibition at 100 μM", "result": "<90", "unit": "%"}
    ]},
    {"compound": "CSCC[C@H](NC(=O)[C@@H]1CCCN1C(=O)[C@H](CCC(=O)O)NC(=O)CNC(=O)[C@@H]1CCCN1C(=O)[C@H](CCCCN)NC(=O)[C@H](CC(C)C)NC(=O)[C@H](CC(N)=O)NC(=O)[C@H](CC(C)C)NC(=O)[C@H](Cc1c[nH]c2ccccc12)NC(=O)[C@H](CCCCN)NC(=O)[C@@H]1CCCN1)C(=O)N[C@@H](Cc1ccc(O)cc1)C(=O)O", "note": "[compound 148] (H-PKWLNLKPGEPMY-OH; N-terminus and C-terminus assumed)", "values": [
      {"measurement": "Inhibition at 50 μM", "result": "<90", "unit": "%"},
      {"measurement": "Inhibition at 100 μM", "result": "<90", "unit": "%"}
    ]},
    {"compound": "CSCC[C@H](NC(=O)[C@@H]1CCCN1C(=O)[C@H](CCC(N)=O)NC(=O)CNC(=O)[C@@H]1CCCN1C(=O)[C@H](CCSC)NC(=O)[C@H](CC(C)C)NC(=O)[C@H](CCCCN)NC(=O)[C@H](CC(C)C)NC(=O)[C@@H](NC(=O)[C@H](CCCNC(=N)N)NC(=O)[C@@H](N)Cc1c[nH]c2ccccc12)C(C)C)C(=O)N[C@@H](Cc1ccc(O)cc1)C(=O)O", "note": "[compound 149] (H-WRVLKLMPGQPMY-OH; N-terminus and C-terminus assumed)", "values": [
      {"measurement": "Inhibition at 50 μM", "result": "<90", "unit": "%"},
      {"measurement": "Inhibition at 100 μM", "result": "<90", "unit": "%"}
    ]}
  ]
}
